Assay results taken from ChEMBL document CHEMBL4507263, “Data for DCP probe BAY-474” (2021).

How the values were obtained:
[1] = target: Fibroblast growth factor receptor 4 (Homo sapiens) (UniProt P22455); test: FGFR4 (h) Millipore kinase activity assay; settings: Compound concentration 1.0 uM
[2] = target: Serine/threonine-protein kinase Nek2 (Homo sapiens) (UniProt P51955); test: NEK2 (h) Millipore kinase activity assay; settings: Compound concentration 1.0 uM
[3] = target: Protein kinase C beta type (Homo sapiens) (UniProt P05771); test: PKCbetaII (h) Millipore kinase activity assay; settings: Compound concentration 1.0 uM
[4] = target: Serine/threonine-protein kinase D1 (Homo sapiens) (UniProt Q15139); test: PKCmu (h) Millipore kinase activity assay; settings: Compound concentration 1.0 uM
[5] = target: Proto-oncogene tyrosine-protein kinase ROS (Homo sapiens) (UniProt P08922); test: Ros (h) Millipore kinase activity assay; settings: Compound concentration 1.0 uM
[6] = target: Ribosomal protein S6 kinase alpha-2 (Homo sapiens) (UniProt Q15349); test: Rsk3 (h) Millipore kinase activity assay; settings: Compound concentration 1.0 uM
[7] = target: Sodium-dependent serotonin transporter (Homo sapiens) (UniProt P31645); settings: Compound concentration 10.0 uM
[8] = target: T1, Muscarinic acetylcholine receptor M1 (Homo sapiens) (UniProt P11229); settings: Compound concentration 10.0 uM
T1 sequence (whole entry): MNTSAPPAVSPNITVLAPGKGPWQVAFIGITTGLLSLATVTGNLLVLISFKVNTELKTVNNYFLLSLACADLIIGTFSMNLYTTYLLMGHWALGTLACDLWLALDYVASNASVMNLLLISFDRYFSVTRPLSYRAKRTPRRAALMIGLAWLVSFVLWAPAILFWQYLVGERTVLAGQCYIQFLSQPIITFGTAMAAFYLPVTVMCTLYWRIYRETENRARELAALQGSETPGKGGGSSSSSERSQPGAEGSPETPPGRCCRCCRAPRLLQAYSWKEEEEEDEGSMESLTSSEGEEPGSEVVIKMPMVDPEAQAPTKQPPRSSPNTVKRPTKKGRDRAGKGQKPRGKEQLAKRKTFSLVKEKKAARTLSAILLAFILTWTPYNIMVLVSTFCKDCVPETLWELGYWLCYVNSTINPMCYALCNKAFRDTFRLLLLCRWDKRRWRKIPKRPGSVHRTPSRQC

[9] = target: Mitogen-activated protein kinase kinase kinase kinase 2 (Homo sapiens) (UniProt Q12851); test: GCK (h) Millipore kinase activity assay; settings: Compound concentration 1.0 uM
[10] = system: Tyrosine-protein kinase ABL1 (Homo sapiens), P00519 [E255K]; settings: Compound concentration 1000.0 nM
[11] = system: Tyrosine-protein kinase ABL1 (Homo sapiens), P00519 [Y253F]; settings: Compound concentration 1000.0 nM
[12] = target: Atypical kinase COQ8B, mitochondrial (Homo sapiens) (UniProt Q96D53); settings: Compound concentration 1000.0 nM
[13] = target: Serine/threonine-protein kinase BRSK2 (Homo sapiens) (UniProt Q8IWQ3); settings: Compound concentration 1000.0 nM
[14] = target: Mitotic checkpoint serine/threonine-protein kinase BUB1 (Homo sapiens) (UniProt O43683); settings: Compound concentration 1000.0 nM
[15] = target: Calcium/calmodulin-dependent protein kinase type 1D (Homo sapiens) (UniProt Q8IU85); settings: Compound concentration 1000.0 nM
[16] = target: Casein kinase I isoform gamma-3 (Homo sapiens) (UniProt Q9Y6M4); settings: Compound concentration 1000.0 nM
[17] = target: Ephrin type-B receptor 2 (Homo sapiens) (UniProt P29323); settings: Compound concentration 1000.0 nM
[18] = target: Inhibitor of nuclear factor kappa-B kinase subunit beta (Homo sapiens) (UniProt O14920); settings: Compound concentration 1000.0 nM
[19] = target: Serine/threonine-protein kinase STK11 (Homo sapiens) (UniProt Q15831); settings: Compound concentration 1000.0 nM
[20] = target: Leucine-rich repeat serine/threonine-protein kinase 2 (Homo sapiens) (UniProt Q5S007); settings: Compound concentration 1000.0 nM
[21] = target: Mitogen-activated protein kinase kinase kinase 1 (Homo sapiens) (UniProt Q13233); settings: Compound concentration 1000.0 nM
[22] = target: Mitogen-activated protein kinase kinase kinase kinase 2 (Homo sapiens) (UniProt Q12851); settings: Compound concentration 1000.0 nM
[23] = target: Phosphatidylinositol 4,5-bisphosphate 3-kinase catalytic subunit delta isoform (Homo sapiens) (UniProt O00329); settings: Compound concentration 1000.0 nM
[24] = target: cAMP-dependent protein kinase catalytic subunit beta (Homo sapiens) (UniProt P22694); settings: Compound concentration 1000.0 nM
[25] = target: T2, cGMP-dependent protein kinase 1 (Homo sapiens) (UniProt Q13976); settings: Compound concentration 1000.0 nM
T2 sequence (whole entry): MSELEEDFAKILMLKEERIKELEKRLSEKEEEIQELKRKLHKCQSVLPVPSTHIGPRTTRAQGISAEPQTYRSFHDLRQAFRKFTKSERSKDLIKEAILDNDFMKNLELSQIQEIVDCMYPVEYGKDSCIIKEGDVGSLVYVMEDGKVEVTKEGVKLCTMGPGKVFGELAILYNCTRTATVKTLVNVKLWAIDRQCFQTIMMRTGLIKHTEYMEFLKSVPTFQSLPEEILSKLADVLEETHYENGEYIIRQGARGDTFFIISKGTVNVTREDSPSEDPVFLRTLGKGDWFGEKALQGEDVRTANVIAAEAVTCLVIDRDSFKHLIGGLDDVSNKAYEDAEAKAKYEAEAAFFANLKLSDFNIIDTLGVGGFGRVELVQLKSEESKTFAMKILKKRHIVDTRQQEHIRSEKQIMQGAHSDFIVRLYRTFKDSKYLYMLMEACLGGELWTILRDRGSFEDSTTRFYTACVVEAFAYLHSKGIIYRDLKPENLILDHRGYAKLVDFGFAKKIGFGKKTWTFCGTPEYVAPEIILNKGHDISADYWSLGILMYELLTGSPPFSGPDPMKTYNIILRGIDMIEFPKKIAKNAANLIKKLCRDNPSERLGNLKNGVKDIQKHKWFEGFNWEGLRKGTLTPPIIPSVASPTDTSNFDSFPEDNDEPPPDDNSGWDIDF

[26] = target: Ribosomal protein S6 kinase alpha-3 (Homo sapiens, UniProt P51812); settings: Compound concentration 1000.0 nM
[27] = target: SRSF protein kinase 1 (Homo sapiens) (UniProt Q96SB4); settings: Compound concentration 1000.0 nM
[28] = target: SRSF protein kinase 3 (Homo sapiens) (UniProt Q9UPE1); settings: Compound concentration 1000.0 nM
[29] = target: Serine/threonine-protein kinase WNK2 (Homo sapiens) (UniProt Q9Y3S1); settings: Compound concentration 1000.0 nM

Chain of Atypical kinase COQ8B, mitochondrial (Homo sapiens) (Q96D53 whole entry): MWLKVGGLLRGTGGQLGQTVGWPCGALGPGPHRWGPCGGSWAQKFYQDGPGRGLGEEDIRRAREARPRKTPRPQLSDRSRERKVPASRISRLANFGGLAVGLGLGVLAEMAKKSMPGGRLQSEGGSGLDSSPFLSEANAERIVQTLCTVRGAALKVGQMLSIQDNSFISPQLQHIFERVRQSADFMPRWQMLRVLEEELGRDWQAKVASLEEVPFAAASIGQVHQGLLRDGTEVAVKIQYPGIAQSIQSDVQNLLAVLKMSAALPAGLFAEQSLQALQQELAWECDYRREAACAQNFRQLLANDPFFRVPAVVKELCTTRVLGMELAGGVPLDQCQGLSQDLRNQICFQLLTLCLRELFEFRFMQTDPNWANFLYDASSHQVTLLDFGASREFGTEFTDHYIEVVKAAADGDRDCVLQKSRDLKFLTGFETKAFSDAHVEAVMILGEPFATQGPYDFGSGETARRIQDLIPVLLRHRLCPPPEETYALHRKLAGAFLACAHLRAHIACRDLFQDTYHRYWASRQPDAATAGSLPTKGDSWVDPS
Chain of Inhibitor of nuclear factor kappa-B kinase subunit beta (Homo sapiens) (O14920 whole entry): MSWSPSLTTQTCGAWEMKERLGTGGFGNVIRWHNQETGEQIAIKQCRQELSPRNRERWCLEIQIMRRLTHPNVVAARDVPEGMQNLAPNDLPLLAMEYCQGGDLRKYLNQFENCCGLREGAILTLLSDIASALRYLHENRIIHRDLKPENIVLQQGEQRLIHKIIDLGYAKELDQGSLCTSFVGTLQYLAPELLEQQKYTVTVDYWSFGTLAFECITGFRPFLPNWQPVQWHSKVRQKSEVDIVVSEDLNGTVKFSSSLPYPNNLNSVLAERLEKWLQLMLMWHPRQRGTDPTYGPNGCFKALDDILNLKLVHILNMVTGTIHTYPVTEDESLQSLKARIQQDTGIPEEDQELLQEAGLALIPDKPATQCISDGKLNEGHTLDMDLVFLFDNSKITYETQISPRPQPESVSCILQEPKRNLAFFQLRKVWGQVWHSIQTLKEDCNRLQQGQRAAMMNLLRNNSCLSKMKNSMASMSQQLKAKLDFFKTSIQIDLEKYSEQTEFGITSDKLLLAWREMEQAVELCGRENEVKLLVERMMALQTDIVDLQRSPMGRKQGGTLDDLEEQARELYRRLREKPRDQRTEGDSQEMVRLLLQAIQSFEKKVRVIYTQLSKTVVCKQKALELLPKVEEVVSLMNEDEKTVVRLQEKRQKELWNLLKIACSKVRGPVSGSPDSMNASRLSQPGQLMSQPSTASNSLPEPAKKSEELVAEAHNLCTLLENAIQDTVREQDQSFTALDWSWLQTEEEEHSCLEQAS
Chain of Mitogen-activated protein kinase kinase kinase 1 (Homo sapiens) (Q13233 whole entry): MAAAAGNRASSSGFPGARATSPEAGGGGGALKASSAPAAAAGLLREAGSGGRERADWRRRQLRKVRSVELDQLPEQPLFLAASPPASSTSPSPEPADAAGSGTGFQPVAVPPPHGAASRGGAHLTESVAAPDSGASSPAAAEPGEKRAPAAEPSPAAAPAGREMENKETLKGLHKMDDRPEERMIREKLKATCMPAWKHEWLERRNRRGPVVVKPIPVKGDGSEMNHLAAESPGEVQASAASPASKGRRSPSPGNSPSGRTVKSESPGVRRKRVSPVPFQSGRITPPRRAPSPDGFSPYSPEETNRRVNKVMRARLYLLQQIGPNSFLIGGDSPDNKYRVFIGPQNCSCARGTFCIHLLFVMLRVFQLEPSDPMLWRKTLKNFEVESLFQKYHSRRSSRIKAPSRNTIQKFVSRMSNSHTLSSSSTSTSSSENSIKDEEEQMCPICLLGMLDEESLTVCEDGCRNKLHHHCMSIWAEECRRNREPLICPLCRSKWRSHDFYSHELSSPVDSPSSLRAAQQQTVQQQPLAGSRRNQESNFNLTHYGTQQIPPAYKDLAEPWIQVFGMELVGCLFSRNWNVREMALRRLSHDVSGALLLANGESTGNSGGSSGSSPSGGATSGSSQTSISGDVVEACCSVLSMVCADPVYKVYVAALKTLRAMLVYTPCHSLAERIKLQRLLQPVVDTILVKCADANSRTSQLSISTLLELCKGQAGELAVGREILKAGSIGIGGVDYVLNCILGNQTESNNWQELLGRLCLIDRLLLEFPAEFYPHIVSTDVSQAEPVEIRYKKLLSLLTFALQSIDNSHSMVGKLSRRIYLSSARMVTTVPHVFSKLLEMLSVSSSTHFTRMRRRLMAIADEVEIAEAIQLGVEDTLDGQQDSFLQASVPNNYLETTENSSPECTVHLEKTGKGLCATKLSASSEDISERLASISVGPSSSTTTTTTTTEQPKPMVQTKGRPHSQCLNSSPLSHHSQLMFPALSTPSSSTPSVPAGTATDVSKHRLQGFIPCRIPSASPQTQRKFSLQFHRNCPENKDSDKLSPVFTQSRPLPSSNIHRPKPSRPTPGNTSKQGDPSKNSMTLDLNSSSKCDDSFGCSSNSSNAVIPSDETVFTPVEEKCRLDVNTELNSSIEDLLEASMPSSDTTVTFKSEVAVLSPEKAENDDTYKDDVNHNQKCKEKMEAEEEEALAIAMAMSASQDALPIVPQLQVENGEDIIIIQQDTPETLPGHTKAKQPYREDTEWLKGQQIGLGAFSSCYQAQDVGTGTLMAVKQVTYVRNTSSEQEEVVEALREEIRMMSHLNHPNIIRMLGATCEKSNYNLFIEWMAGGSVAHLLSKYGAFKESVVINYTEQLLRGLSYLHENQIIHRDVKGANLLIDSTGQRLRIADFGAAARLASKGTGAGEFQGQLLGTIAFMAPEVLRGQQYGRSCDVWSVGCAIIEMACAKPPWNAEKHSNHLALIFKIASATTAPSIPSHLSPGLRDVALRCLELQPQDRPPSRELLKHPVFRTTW
Chain of Serine/threonine-protein kinase BRSK2 (Homo sapiens) (Q8IWQ3 whole entry): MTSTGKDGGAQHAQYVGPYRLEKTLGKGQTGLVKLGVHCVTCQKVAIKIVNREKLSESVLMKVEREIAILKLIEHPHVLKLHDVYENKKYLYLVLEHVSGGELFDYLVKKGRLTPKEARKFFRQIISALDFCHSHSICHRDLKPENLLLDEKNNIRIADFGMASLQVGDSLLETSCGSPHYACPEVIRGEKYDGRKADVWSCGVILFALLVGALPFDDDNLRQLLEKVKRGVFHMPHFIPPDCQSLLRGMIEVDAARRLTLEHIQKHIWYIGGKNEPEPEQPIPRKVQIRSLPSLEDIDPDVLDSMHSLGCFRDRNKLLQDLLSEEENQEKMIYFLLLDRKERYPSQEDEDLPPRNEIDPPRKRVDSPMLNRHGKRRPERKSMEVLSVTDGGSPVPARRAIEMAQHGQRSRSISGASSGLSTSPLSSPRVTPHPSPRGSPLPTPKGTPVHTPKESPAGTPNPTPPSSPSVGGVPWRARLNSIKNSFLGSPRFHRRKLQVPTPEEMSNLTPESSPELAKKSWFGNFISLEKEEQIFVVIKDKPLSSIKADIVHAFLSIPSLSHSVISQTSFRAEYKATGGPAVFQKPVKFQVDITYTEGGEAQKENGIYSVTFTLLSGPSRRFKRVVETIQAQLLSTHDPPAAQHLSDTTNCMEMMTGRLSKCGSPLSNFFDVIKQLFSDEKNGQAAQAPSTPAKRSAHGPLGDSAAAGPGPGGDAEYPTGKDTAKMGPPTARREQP
Chain of Protein kinase C beta type (Homo sapiens) (P05771 2-671 limits assumed): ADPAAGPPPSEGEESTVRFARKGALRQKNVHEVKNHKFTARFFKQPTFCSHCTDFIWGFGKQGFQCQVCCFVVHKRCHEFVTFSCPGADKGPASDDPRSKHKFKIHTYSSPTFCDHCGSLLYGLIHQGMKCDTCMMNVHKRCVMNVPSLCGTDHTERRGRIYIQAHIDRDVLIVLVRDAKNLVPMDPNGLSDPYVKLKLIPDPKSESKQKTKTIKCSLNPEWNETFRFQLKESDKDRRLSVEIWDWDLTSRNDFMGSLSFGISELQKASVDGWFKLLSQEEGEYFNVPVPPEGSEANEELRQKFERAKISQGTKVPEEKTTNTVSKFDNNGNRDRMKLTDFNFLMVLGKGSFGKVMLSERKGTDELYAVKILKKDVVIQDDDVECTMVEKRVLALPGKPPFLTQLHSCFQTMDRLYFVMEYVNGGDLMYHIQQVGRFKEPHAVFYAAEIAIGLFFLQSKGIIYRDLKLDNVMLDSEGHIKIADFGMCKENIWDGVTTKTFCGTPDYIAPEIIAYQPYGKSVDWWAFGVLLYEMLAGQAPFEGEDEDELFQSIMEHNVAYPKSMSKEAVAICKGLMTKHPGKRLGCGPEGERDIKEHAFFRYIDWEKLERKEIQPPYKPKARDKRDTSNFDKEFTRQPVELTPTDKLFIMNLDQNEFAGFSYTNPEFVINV
Chain of SRSF protein kinase 3 (Homo sapiens) (Q9UPE1 whole entry): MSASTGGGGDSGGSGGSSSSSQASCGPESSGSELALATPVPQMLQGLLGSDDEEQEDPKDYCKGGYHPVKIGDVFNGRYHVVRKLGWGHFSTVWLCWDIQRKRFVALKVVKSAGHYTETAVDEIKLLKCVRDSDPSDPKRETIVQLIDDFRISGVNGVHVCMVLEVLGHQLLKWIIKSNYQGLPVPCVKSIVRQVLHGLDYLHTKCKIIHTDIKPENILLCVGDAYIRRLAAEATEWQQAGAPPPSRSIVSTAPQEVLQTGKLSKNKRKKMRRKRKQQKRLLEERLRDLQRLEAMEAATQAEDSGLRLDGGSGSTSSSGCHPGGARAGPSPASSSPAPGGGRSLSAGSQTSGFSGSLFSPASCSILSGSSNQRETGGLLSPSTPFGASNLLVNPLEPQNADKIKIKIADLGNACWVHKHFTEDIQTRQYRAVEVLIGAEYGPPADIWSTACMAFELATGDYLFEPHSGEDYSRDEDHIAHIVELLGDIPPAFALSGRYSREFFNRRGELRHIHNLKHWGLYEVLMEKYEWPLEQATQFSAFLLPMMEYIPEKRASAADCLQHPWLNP

CC1=C(C#N)C(c2ccc3[nH]nc(C)c3c2)C(C#N)=C(C)N1 [BAY-474]
inactive: inhibition [1] 18% | inhibition [2] -5% | inhibition [3] 7% | inhibition [4] 15% | inhibition [5] 25% | inhibition [6] 51% | inhibition [7] -3.41% | inhibition [8] 0% | inhibition [9] 1%

CC1=C(C#N)[C@@H](c2ccc3[nH]nc(C)c3c2)C(C#N)=C(c2ccc(Cl)cc2)N1 [BAY-827]
inactive: residual activity [10] 83.5% | residual activity [11] 100% | residual activity [12] 78.8% | residual activity [13] 100% | residual activity [14] 100% | residual activity [15] 100% | residual activity [16] 100% | residual activity [17] 100% | residual activity [18] 100% | residual activity [19] 100% | residual activity [20] 91.7% | residual activity [21] 100% | residual activity [22] 100% | residual activity [23] 100% | residual activity [24] 81.5% | residual activity [25] 86.9% | residual activity [26] 78.1% | residual activity [27] 100% | residual activity [28] 100% | residual activity [29] 100%
